# Results from US20230404933A1, “NON-CATIONIC SOFT POLYPHENOL NANOCAPSULES FOR EFFECTIVE […] […] OF SMALL INTERFERING RNA (siRNA) FOR CANCER TREATMENT” (Purdue Research Foundation, priority 2020, published 2023).
# Test: siRNA stability in 50% FBS (gel electrophoresis)
# Type: in vitro ADME, bovine
# Protocol: siRNA-loading capacity of MSN^a was evaluated by the agarose gel retardation assay. siRNA-loaded MSNs (MSN^a/siRNA) complexes were prepared varying the MSN^a/siRNA weight ratio from 1/1 to 50/1. The complexes were loaded in 2% agarose gel and run in 0.5×TAE buffer at 80 V for 40 min. The gel was stained with ethidium bromide, and siRNA bands were detected at 302 nm using Azure C300 (Dublin, CA, USA). For stability testing, siRNA or NPs were challenged with 166 U/mL RNase for 15 min±8 mg/mL SDS for additional 2.5 h or 50% FBS for 1 h, both at 37° C., and analyzed by agarose gel electrophoresis. To quantify siRNA loaded in Nanosac (O/siRNA/pD), the NPs were dispersed in dilute HCl solution (pH 3) and incubated for 72 h. The samples were centrifuged at 16,000 rcf for 10 min, and the supernatant and pellet were separately analyzed by agarose gel electrophoresis.
substance,measurement,value
"siPD-L1: PD-L1 siRNA, sense 5′-CCCACAUAAAAAACAGUUGTT-3′ (SEQ ID NO: 1), antisense SEQ ID NO: 2 (antisense CAACUGUUUUUUAUGUGGGTT; chemistry not given here)",stability of siRNA in 50% FBS,completely degraded
